Assay results published in the supplement of paper PMC11451515.

Tested on: SEM cells
Experiment: cell viability relative to DMSO control; higher = less cytotoxic
Details: 48 h
Procedure, shortened: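 Viability values are per-plate percentages of DMSO wells, with background from cell-free wells. Library compounds in DMSO were pin-dosed, in an 11-point threefold series from 47 μM to 0.79 nM, onto NOMO1 or SEM (500 cells/well) or P12-Ichikawa (1000 cells/well) leukemia cells in 1536-well plates (5 μl). Those cells had been adapted for at least four passages in each medium, and CellTiter-Glo One luminescence was read after 48 h at 37°C.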

[1] = HPLM + 10% dialyzed FBS, 0.000781 µM
[2] = HPLM + 10% dialyzed FBS, 0.00234 µM
[3] = HPLM + 10% dialyzed FBS, 0.00702 µM
[4] = HPLM + 10% dialyzed FBS, 0.0211 µM
[5] = HPLM + 10% dialyzed FBS, 0.0632 µM
[6] = HPLM + 10% dialyzed FBS, 0.19 µM
[7] = HPLM + 10% dialyzed FBS, 0.569 µM
[8] = HPLM + 10% dialyzed FBS, 1.71 µM
[9] = HPLM + 10% dialyzed FBS, 5.12 µM
[10] = HPLM + 10% dialyzed FBS, 15.4 µM
[11] = HPLM + 10% dialyzed FBS, 46.1 µM
[12] = RPMI 5 mM glucose + 10% FBS, 0.000781 µM
[13] = RPMI 5 mM glucose + 10% FBS, 0.00234 µM
[14] = RPMI 5 mM glucose + 10% FBS, 0.00702 µM
[15] = RPMI 5 mM glucose + 10% FBS, 0.0211 µM
[16] = RPMI 5 mM glucose + 10% FBS, 0.0632 µM
[17] = RPMI 5 mM glucose + 10% FBS, 0.19 µM
[18] = RPMI 5 mM glucose + 10% FBS, 0.569 µM
[19] = RPMI 5 mM glucose + 10% FBS, 1.71 µM
[20] = RPMI 5 mM glucose + 10% FBS, 5.12 µM
[21] = RPMI 5 mM glucose + 10% FBS, 15.4 µM
[22] = RPMI 5 mM glucose + 10% FBS, 46.1 µM
[23] = RPMI 5 mM glucose + 10% dialyzed FBS, 0.000781 µM
[24] = RPMI 5 mM glucose + 10% dialyzed FBS, 0.00234 µM
[25] = RPMI 5 mM glucose + 10% dialyzed FBS, 0.00702 µM
[26] = RPMI 5 mM glucose + 10% dialyzed FBS, 0.0211 µM
[27] = RPMI 5 mM glucose + 10% dialyzed FBS, 0.0632 µM
[28] = RPMI 5 mM glucose + 10% dialyzed FBS, 0.19 µM
[29] = RPMI 5 mM glucose + 10% dialyzed FBS, 0.569 µM
[30] = RPMI 5 mM glucose + 10% dialyzed FBS, 1.71 µM
[31] = RPMI 5 mM glucose + 10% dialyzed FBS, 5.12 µM
[32] = RPMI 5 mM glucose + 10% dialyzed FBS, 15.4 µM
[33] = RPMI 5 mM glucose + 10% dialyzed FBS, 46.1 µM

Compound	cell viability [1] [%]	cell viability [2] [%]	cell viability [3] [%]	cell viability [4] [%]	cell viability [5] [%]	cell viability [6] [%]	cell viability [7] [%]	cell viability [8] [%]	cell viability [9] [%]	cell viability [10] [%]	cell viability [11] [%]	cell viability [12] [%]	cell viability [13] [%]	cell viability [14] [%]	cell viability [15] [%]	cell viability [16] [%]	cell viability [17] [%]	cell viability [18] [%]	cell viability [19] [%]	cell viability [20] [%]	cell viability [21] [%]	cell viability [22] [%]	cell viability [23] [%]	cell viability [24] [%]	cell viability [25] [%]	cell viability [26] [%]	cell viability [27] [%]	cell viability [28] [%]	cell viability [29] [%]	cell viability [30] [%]	cell viability [31] [%]	cell viability [32] [%]	cell viability [33] [%]
CN(C)c1ccc(C(=O)NCCCCCCC(=O)NO)cc1	97.1	94.4	91.8	88.1	97.7	96.2	93.9	34	3.1	1.85	2.9	91.8	100	94.6	92	112	94.8	76.2	37.3	3.1	1.95	3.03	93.2	111	105	96.4	95	90.7	83.5	31.4	2.63	1.52	3.31
Nc1ccc([S+](=O)([O-])Nc2ccccn2)cc1	77.7	91.7	91.3	93.7	82.7	91	93.6	98.8	88.5	97	96.9	100	104	115	118	112	108	122	119	124	109	111	98.6	109	100	101	113	101	99	108	121	103	115
CCc1cc(/C(C)=N/OCc2ccc(C3CCCCC3)c(C(F)(F)F)c2)ccc1CN1CC(C(=O)O)C1	104	117	112	109	104	115	120	117	99.8	87.1	82.9	92	108	109	109	105	109	106	99.9	96.2	82.2	70.2	114	116	125	123	126	124	137	132	118	106	94
CC(C)[C@H](CO)Nc1nc(Nc2ccc(C(=O)O)c(Cl)c2)c2ncn(C(C)C)c2n1	113	104	103	112	126	115	97.6	73.6	99.2	92.2	54.2	89.7	128	114	95.2	106	102	86.6	83.2	75.5	91.7	45	102	120	97.3	107	116	107	114	79.1	109	95.5	57.8
CN(C(=O)c1ccc(F)cc1C(F)(F)F)C1CCN(c2nnc(-c3ccnn3C)c3ccccc23)CC1	50.4	67.5	60.6	62.4	79.4	85.1	69.4	78.6	79	80.6	49.2	69.2	74.8	71	85.5	83.3	77.6	91	86.2	74.1	86.8	59.8	56.3	61.4	61.9	70.8	66.7	80.4	65	86.1	79.2	83.3	41
O=C(C1CCCCC1)N1CC(=O)N2CCc3ccccc3C2C1 (stereo unspecified)	90.6	98.8	117	108	113	96	97.1	86.1	78.2	84.1	75.8	99.9	109	126	105	116	95.8	91.6	74.3	66.7	75.1	78.4	106	110	147	99.1	133	132	103	77.9	75	74.8	73.1
O=C(Oc1ccc([N+](=O)[O-])cc1)N1CCN(Cc2cccc(Oc3ccccc3)c2)CC1	94.6	100	93.4	106	103	64.4	120	116	107	107	121	90.4	86.1	99.5	106	93.6	67.1	111	106	102	95.9	101	112	108	108	125	115	60.9	109	108	114	110	121
